Results as given in US9114120B2, “Therapeutical method for the treatment of the Leber optic neuropathy” (SIGMA-TAU INDUSTRIE FARMACEUTICHE RIUNITE, S.P.A., priority 2010, dated 2015).

System: Patients with LHON
Experiment: Example 2: 12-month double blind, placebo controlled study of acetyl L-carnitine, visual acuity
Type: in vivo, human
Settings: for Visual Acuity Change, Diff / Visual Acuity Recovery, Diff: ALC 2 g/day orally vs placebo
Excerpt: 30 Patients with LHON were enrolled. To be eligible, participants were required to meet the following inclusion criteria: both sexes, age ≧20 years and ≦60 years, diagnosis of Leber's optic neuropathy assessed by the presence of at least one of the three most common LHON pathogenic mutations (11778/ND4, 3460/ND1, 14484/ND6), and duration of disease greater than 2 years.
The study treatment trial was 12-month, double blind, placebo controlled with participants randomized to receive acetyl L-carnitine (2 g/day orally) or placebo.
The primary efficacy end point for the study was the best recovery in visual acuity in either eye measured by change in logMAR (logarithm of Minimal Angle of Resolution) in study eyes comparing the acetyl-L-carnitine treatment group with the placebo treatment control group 6 and 12 months after enrolment. Secondary efficacy outcome was the patients' best visual acuity at 6 and 12 months compared to best visual acuity at baseline.

CC(=O)O[C@H](CC(=O)[O-])C[N+](C)(C)C [ALC, acetyl-L-carnitine]
Visual Acuity Change, Diff (T6 (6 months), p < 0.05): Diff = 14 letters
Visual Acuity Recovery, Diff (T6 (6 months), p < 0.05): Diff = 10 letters
Visual Acuity Change, Diff (T12 (12 months), p < 0.01): Diff = 18 letters
Visual Acuity Recovery, Diff (T12 (12 months), p < 0.01): Diff = 12 letters
improvement of visual acuity recovery (in words) (vs placebo, after 6 months (T6) and 12 months (T12)): significant difference in improvement
visual acuity of eyes (in words) (vs placebo, both time points T6 and T12): significantly improved
